Values quoted from earlier work, collected in publication PMC11542186, “Pin1 WW Domain Ligand Library Synthesized with an Easy Solid-Phase Phosphorylating Reagent” (Biochemistry, 2024).
Where a SMILES comes first, the peptide text is derived from it. [ ]: non-standard residue; d: D form. pT = C[C@@H](OP(=O)(O)O)[C@H](N)C(=O)O

Target: isolated Pin1 WW domain
Set-up: method as in PMID 16033261
Details: measured by NMR for the isolated Pin1 WW domain; cited from earlier work

SMILES: CC(=O)N[C@H](C(=O)N1CCC[C@H]1C(N)=O)[C@@H](C)OP(=O)(O)O [Ac–pThr–Pro–NH2] (Ac-[pT]-Pro-NH2)
- Kd: 150 µM
